Like-named read-outs stand apart in the source and are kept apart here.
Assays:
[1] = Peptide stability in mouse plasma; format: in vitro ADME; settings: 100 μg/mL, 37° C.; FIG. 3, 5, 14
Experimental: (§1) The stability of peptides was also tested in mouse and human plasma. Briefly, a certain amount of peptides and eucatropine powder (positive control) was accurately weighed. Test compounds were dissolved in 50% methanol-water solution and diluted to 20 mg/mL, and eucatropine was dissolved in dimethylsulfoxide (DMSO) and diluted to 10 mM, as a stock solution. Eucatropine stock solution was diluted to 0.2 mM with DMSO as a working solution. A stop reagent was prepared containing 200 ng/mL midazolam and tolbutamide in acetonitrile. A volume of 300 μL of stop solution was added to each well of a 96-well deep-well plate placed on ice beforehand.
(§2) For the stability studies, peptides and eucatropine were spiked into plasma respectively, mixed well, and then 100 μL of each mixture solution was transferred into the pre-cooled stop reagent as 0 time point sample. The remaining mixtures were incubated in a 37° C. water bath with shaking at 100 rpm (n=2). The final incubation concentration was 1 for eucatropine and 100 μg/mL for all test compounds.
At desired time points, 100 μL of incubation mixture was transferred to the stop reagent to precipitate proteins. Samples were vortexed and centrifuged at RCF 5000×g for 10 minutes, and supernatant was transferred to a test plate. The samples were analyzed by LC-MS/MS.
Slope was calculated by plotting the natural logarithm of the percentage of remaining amount of test compounds and time, and T1/2 was calculated in accordance with the following formula.
For stability in mouse plasma, the incubation time was 0, 5, 15, 30 and 60 min for Peptide 1 and eucatropine; 0, 15, 30, 60, 120, 240 and 480 min for Peptide 12, Peptide 16 and Peptide 29.
In another stability study in mouse plasma, the incubation time was 0, 30, 60 and 120 min for Peptide 2 and eucatropine; 0, 30, 60, 120, 240 and 960 min for Peptide 52 and Peptide 54.
as §1, with “tested in rat, mouse and” for “tested in mouse and”
as §2, with “was 1 μM for eucatropine” for “was 1 for eucatropine”
For stability in mouse plasma, the incubation time was 0, 15, 30, 60 and 120 min for Peptide 1 and eucatropine; 0, 15, 30, 60, 120, and 240 min for Peptide 31.

[2] = Pharmacokinetics in SD rats after single subcutaneous dose (Example X); format: in vivo, rat; settings: plasma, sc, male Sprague-Dawley rat, subcutaneous, 25 mg/kg; for AUC(0-t): read-out: AUC(0-t); for AUC(0-inf): read-out: AUC(0-∞); for Cmax: read-out: Cmax
Experimental: After 7 days acclimation, a total of 15 male Sprague-Dawley (SD) rats (body weight: 230 to 270 g) in good health from Sino-British SIPPR/BK Lab Animal Ltd, Shanghai, were used in the study. All peptides, Peptide 1, Peptide 12, Peptide 16, Peptide 29 or Peptide 31, were dissolved in sterile normal saline respectively to yield the desired final concentrations and were administered via single subcutaneous (sc) dose.
Three animals in each group were used for blood collection at the time point of 5 min, 15 min, 30 min, 1 h, 2 h, 4 h, 6 h, 8 h and 24 h post-dose. Blood samples (approximately 400 μL) were collected and placed into tubes containing EDTA-K2 (dipotassium ethylene diamine tetraacetic acid) and centrifuged at 8000 rpm for 6 minutes at 4° C. to separate plasma from the samples. The resulting plasma was stored frozen at −80° C. until being analyzed.
Plasma concentrations of peptides were determined using tandem mass spectrometry (LC-MS/MS) analysis. A non-compartmental module of WinNonlin® Professional 5.2 (Pharsight; St. Louis Mo.) was used to calculate PK parameters. AUC(0-t) represents area under the curve from the time of dosing to the time of the last observation, the AUC(0-∞) represents area under the curve from the time of dosing to infinity, and the Cmax represents maximum concentration detected.

[3] = Peptide concentration in plasma and pancreas 30 min post dose; format: in vivo, rat; settings: male SD rats, sc bolus 25 mg/kg, 30 min post-dose; for level at 0.5 h: male, Sprague-Dawley, rat, sc, 25 mg/kg
Experimental: To further characterize the pharmacokinetic (PK) properties of peptides, peptide concentration in pancreas—the target organ, was determined 30 min post dose. Briefly, INGAP-PP (Peptide 1), Peptide 12, or Peptide 31 was dissolved in sterile normal saline and then was administered via subcutaneous (sc) bolus at the dose level of 25 mg/kg to male Sprague-Dawley (SD) rats. Five animals in each group were used for blood and pancreas collection at the time point of 30 min post-dose. Blood samples (approximately 400 μL) were collected and placed into tubes containing EDTA-K2 and centrifuged at 8000 rpm for 6 minutes at 4° C. to separate plasma from the samples. After blood extraction and animal sacrifice, the pancreas was removed immediately from each animal, cleared of fat and lymph nodes, weighed, and placed into 5 fold volume of ice cold sterile normal saline with protease inhibitor cocktail (Merck Millipore, catalogue #539137) to homogenize with a homogenizer.
The peptide concentration of the plasma and pancreatic homogenate was determined immediately using tandem mass spectrometry (LC-MS/MS) analysis and the results are presented in Table 8.

[4] = Pharmacokinetics in rat, subcutaneous bolus (Example VII); format: in vivo; settings: male, Sprague-Dawley, plasma, RAT (SC), 25 mg/kg; for AUC(0-t): read-out: AUC(0-t); for AUC(0-inf): read-out: AUC(0-∞); for Cmax: read-out: Cmax
Experimental: After 7 days acclimation, male Sprague-Dawley (SD) rats weighing 210-250 g, or male C57BL/6 mice, weighing 19-24 g, in good health were used in the study. Peptide 1, Peptide 12 and Peptide 16 were dissolved in sterile normal saline and then they were injected via subcutaneous (sc) bolus or intravenous (iv) bolus at the dose level of 25 mg/kg. Three animals in each group were used for blood collection at the time point of 5 min, 15 min, 30 min, 1 h, 2 h, 4 h, 6 h, 8 h and 24 h post-dose. Blood samples (approximately 400 μL) were collected and placed into tubes containing EDTA-K2 and centrifuged at 8000 rpm for 6 minutes at 4° C. to separate plasma from the samples. The resulting plasma was stored frozen at −80° C. until being analyzed. Plasma concentrations of peptides were determined using tandem mass spectrometry (LC-MS/MS) analysis. A non-compartmental module of WinNonlin® Professional 5.2 (Pharsight; St. Louis Mo.), was used to calculate PK parameters. The abbreviation AUC(0-t) represents area under the curve from the time of dosing to the time of the last observation, the AUC(0-∞) represents area under the curve from the time of dosing to infinity, and the Cmax represents maximum concentration detected.

[5] = plasma, read-out: Peptide concentration, Plasma

AUC(0-t) [2] [ng·h/mL] | AUC(0-inf) [2] [ng·h/mL] | Cmax [2] [ng/mL] | level at 0.5 h ([3]; pancreas (homogenate), pancreatic homogenate, read-out: Peptide concentration, Pancreas) [ng/mL] | level at 0.5 h [3, 5] [ng/mL] | AUC(0-t) [4] [ng·h/mL] | AUC(0-inf) [4] [ng·h/mL] | Cmax [4] [ng/mL] | Substance | stability in mouse plasma [1] | Peptide concentration, Pancreas ([3]; pancreatic homogenate)
15600 ± 1530 | 15600 ± 1530 | 26000 ± 3100 | 1630 ± 340 | 15400 ± 3520 |  |  |  | Ac-IGLHDPSHGTLPNGS-NH2 [Peptide 31, Ac-IGLHDPSHGTLPNGS-NH2] | exhibited good stability in mouse plasma and was more stable than INGAP-PP | 
11200 ± 1880 | 11200 ± 1880 | 22100 ± 5870 |  |  | 12100 | 12200 | 18900 | Ac-IGLHDPSHGTLPNGS-OH [Peptide 16, Ac-IGLHDPSHGTLPNGS-OH] | exhibited good stability in mouse plasma and were more stable than INGAP-PP | 
294 ± 125 | 298 ± 122 | 1190 ± 610 |  | 210 ± 107 | 298 | 305 | 1240 | H-IGLHDPSHGTLPNGS-OH [Peptide 1, H-IGLHDPSHGTLPNGS-OH, reference compound] |  | NA (Below the lower limit of quantitation (LLOQ) 2.5 ng/mL)

— US9388215B2, “Compositions and methods of using islet neogenesis peptides and analogs thereof” (SHENZHEN HIGHTIDE BIOPHARMACEUTICAL, LTD., priority 2013, dated 2016)
